The text below walks through data of patent US10526327B2, “Histone demethylase inhibitors” (CELGENE QUANTICEL RESEARCH, INC., priority 2013, dated 2020).

Where only a bound is given, the exact number is not on record here.

Experiment [1] concerns the target T1, Jarid1B (Homo sapiens, UniProt Q9UGL1).
T1 construct: purchased BPS Bioscience or custom made by MolecularThroughput 50121
T1 sequence (Q9UGL1 2-751): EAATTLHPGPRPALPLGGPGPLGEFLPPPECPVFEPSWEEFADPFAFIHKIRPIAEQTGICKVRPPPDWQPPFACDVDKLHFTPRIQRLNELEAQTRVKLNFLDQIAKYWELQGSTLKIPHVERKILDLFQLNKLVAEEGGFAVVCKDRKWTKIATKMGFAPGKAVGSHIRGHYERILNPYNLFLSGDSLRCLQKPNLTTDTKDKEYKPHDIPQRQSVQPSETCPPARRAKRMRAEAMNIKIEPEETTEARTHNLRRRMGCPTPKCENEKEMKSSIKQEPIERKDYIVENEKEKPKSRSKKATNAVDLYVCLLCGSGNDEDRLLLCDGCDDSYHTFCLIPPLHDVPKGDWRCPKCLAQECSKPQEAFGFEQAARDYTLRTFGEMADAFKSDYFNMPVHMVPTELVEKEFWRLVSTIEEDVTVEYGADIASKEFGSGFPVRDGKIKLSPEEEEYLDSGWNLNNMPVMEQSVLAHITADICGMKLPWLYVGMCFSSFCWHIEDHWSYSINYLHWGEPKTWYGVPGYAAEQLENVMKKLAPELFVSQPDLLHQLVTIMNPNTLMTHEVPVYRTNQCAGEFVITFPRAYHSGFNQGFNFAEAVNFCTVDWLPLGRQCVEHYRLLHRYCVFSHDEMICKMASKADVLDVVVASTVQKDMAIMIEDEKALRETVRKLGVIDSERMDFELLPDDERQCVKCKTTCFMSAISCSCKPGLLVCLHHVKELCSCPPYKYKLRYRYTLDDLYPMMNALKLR
As to the kind of experiment: Jarid1B in vitro enzyme inhibition assay (TR-FRET). In kind it is biochemical. The method in brief: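 TR-FRET read-out of demethylated product (Eu-anti-H3K4me1-2, streptavidin-APC) after EDTA quench; ratio 665/615 fitted to IC50. Reaction: 30 min at RT, 0.8 nM baculovirus Jarid1B residues 2-751, 2 μM α-ketoglutarate, 300 nM H3K4me3-biotin peptide, pH 7.3 buffer with Fe(II) and ascorbate.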
(TR-FRET usually uses a lanthanide donor and a delayed reading to cut background.)

For experiment [2], the target named is T2, JMJD2C (Homo sapiens, UniProt Q9H3R0).
T2 construct: purchased BPS Bioscience 50105
T2 sequence (Q9H3R0 2-372): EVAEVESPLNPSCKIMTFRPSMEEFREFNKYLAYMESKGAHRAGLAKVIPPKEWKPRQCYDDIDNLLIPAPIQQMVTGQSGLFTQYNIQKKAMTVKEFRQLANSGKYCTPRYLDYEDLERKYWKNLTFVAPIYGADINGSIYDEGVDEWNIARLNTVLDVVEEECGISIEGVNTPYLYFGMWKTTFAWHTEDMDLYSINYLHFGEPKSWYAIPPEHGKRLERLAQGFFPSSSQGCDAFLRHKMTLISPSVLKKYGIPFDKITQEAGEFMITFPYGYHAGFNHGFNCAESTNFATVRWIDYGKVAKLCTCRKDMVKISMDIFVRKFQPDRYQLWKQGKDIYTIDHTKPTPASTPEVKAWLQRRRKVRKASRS
As to the kind of experiment: JMJD2C in vitro enzyme inhibition assay (TR-FRET). The experiment is classed as biochemical. The procedure, abridged:
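IC50 came from 665/615 TR-FRET ratios (Eu-anti-H3K9me2 antibody, streptavidin-APC, EDTA quench) over 11-point inhibitor series. Reactions ran 30 min at room temperature: 0.3 nM JMJD2C (AA 2-372, baculovirus), 300 nM biotinylated H3K9me3 peptide, 2 μM alpha-ketoglutarate, 2 μM Fe(II), ascorbate, pH 7.3.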

One may read the IC50 as the point on the concentration scale where inhibition reaches its midpoint. Read a low IC50 as higher potency.

Take `Oc1nc(Oc2cnn([C@H]3CCN(c4ccccc4F)C3)c2)nc2cnccc12` [Example 147, 2-({1-[(3S)-1-(2-fluorophenyl)pyrrolidin-3-yl]-1H-pyrazol-4-yl}oxy)pyrido[3,4-d]pyrimidin-4-ol]: the IC50 in experiment [1] and in experiment [2] was not above 100 nM each time.

With `Oc1nc(Oc2cnn([C@H]3CCCNC3)c2)nc2cnccc12` [Example 160, 2-({1-[(3S)-piperidin-3-yl]-1H-pyrazol-4-yl}oxy)pyrido[3,4-d]pyrimidin-4-ol], the 50% inhibitory concentration (IC50) in experiment [1] and in experiment [2] was not above 100 nM throughout.

Take `Oc1nc(OCCc2ccccc2)nc2cnccc12` [Example 18, 2-(2-phenylethoxy)pyrido[3,4-d]pyrimidin-4-ol]: the IC50 in experiment [1] is not above 100 nM; in experiment [2], 100 to 1000 nM.

`O=S(=O)(c1ccccc1)N1CC[C@H](n2cc(Oc3nc(O)c4ccncc4n3)cn2)C1` [Example 138, 2-({1-[(3S)-1-(benzenesulfonyl)pyrrolidin-3-yl]-1H-pyrazol-4-yl}oxy)pyrido[3,4-d]pyrimidin-4-ol]: the IC50 in experiment [1] and in experiment [2] was not above 100 nM each time.

In the case of `N#CCC(=O)N1CCC[C@@H](n2cc(Oc3nc(O)c4ccncc4n3)cn2)C1` [Example 154, 3-[(3R)-3-[4-({4-hydroxypyrido[3,4-d]pyrimidin-2-yl}oxy)-1H-pyrazol-1-yl]piperidin-1-yl]-3-oxopropanenitrile], the IC50 in experiment [1] and in experiment [2] was not above 100 nM throughout.

On to `O=C(C1CC1)N1CCC[C@H](n2cc(Oc3nc(O)c4ccncc4n3)cn2)C1` [Example 165, 2-({1-[(3S)-1-cyclopropanecarbonylpiperidin-3-yl]-1H-pyrazol-4-yl}oxy)pyrido[3,4-d]pyrimidin-4-ol], for which the IC50 in experiment [1] and in experiment [2] was not above 100 nM in each case.

For the molecule `Oc1nc(Oc2cnn([C@@H]3CCNC3)c2)nc2cnccc12` [Example 125, 2-({1-[(3R)-pyrrolidin-3-yl]-1H-pyrazol-4-yl}oxy)pyrido[3,4-d]pyrimidin-4-ol], the IC50 in experiment [1] and in experiment [2] was not above 100 nM each time.

On to `O=S(=O)(c1ccccc1)N1CC[C@@H](n2cc(Oc3nc(O)c4ccncc4n3)cn2)C1` [Example 128, 2-({1-[(3R)-1-(benzenesulfonyl)pyrrolidin-3-yl]-1H-pyrazol-4-yl}oxy)pyrido[3,4-d]pyrimidin-4-ol], for which the IC50 in experiment [1] and in experiment [2] was not above 100 nM in each case.

Consider `CC(=O)N1CC[C@H](n2cc(Oc3nc(O)c4ccncc4n3)cn2)C1` [Example 139, 1-[(3S)-3-[4-({4-hydroxypyrido[3,4-d]pyrimidin-2-yl}oxy)-1H-pyrazol-1-yl]pyrrolidin-1-yl]ethan-1-one], for which the IC50 in experiment [1] and in experiment [2] was not above 100 nM in each case.

With `O=S(=O)(c1ccccc1)N1CCC[C@@H](n2cc(Oc3nc(O)c4ccncc4n3)cn2)C1` [Example 152, 2-({1-[(3R)-1-(benzenesulfonyl)piperidin-3-yl]-1H-pyrazol-4-yl}oxy)pyrido[3,4-d]pyrimidin-4-ol], the IC50 in experiment [1] and in experiment [2] was not above 100 nM throughout.

With `Oc1nc(OC(c2ccccc2)C(F)(F)F)nc2cnccc12` (centres unmarked) [Example 176, 2-(2,2,2-trifluoro-1-phenylethoxy)pyrido[3,4-d]pyrimidin-4-ol], the IC50 was 100 to 1000 nM in experiment [1] and not above 100 nM in experiment [2].

On to `O=C(c1ccccc1)N1CC[C@H](n2cc(Oc3nc(O)c4ccncc4n3)cn2)C1` [Example 142, 2-({1-[(3S)-1-benzoylpyrrolidin-3-yl]-1H-pyrazol-4-yl}oxy)pyrido[3,4-d]pyrimidin-4-ol], for which the IC50 in experiment [1] and in experiment [2] was not above 100 nM throughout.

With `Cn1cnc(-c2nccc3c(O)nc(O[C@H](c4ccccc4)C(F)(F)F)nc23)c1` [Example 108, 8-(1-methyl-1H-imidazol-4-yl)-2-[(1R)-2,2,2-trifluoro-1-phenylethoxy]pyrido[3,4-d]pyrimidin-4-ol], the IC50 lay within 1000 to 10000 nM in experiment [1] and 100 to 1000 nM in experiment [2].

As for `O=C(C1CC1)N1CCC[C@@H](n2cc(Oc3nc(O)c4ccncc4n3)cn2)C1` [Example 156, 2-({1-[(3R)-1-cyclopropanecarbonylpiperidin-3-yl]-1H-pyrazol-4-yl}oxy)pyrido[3,4-d]pyrimidin-4-ol], the IC50 in experiment [1] and in experiment [2] was not above 100 nM each time.

Regarding `Oc1nc(Oc2cnn([C@@H]3CCN(c4ccc(F)cc4)C3)c2)nc2cnccc12` [Example 134, 2-({1-[(3R)-1-(4-fluorophenyl)pyrrolidin-3-yl]-1H-pyrazol-4-yl}oxy)pyrido[3,4-d]pyrimidin-4-ol], the IC50 in experiment [1] and in experiment [2] was not above 100 nM throughout.

Take `Oc1nc(OCc2ccc(C(F)(F)F)cc2)nc2cnccc12` [Example 170, 2-{[4-(trifluoromethyl)phenyl]methoxy}pyrido[3,4-d]pyrimidin-4-ol]: the concentration for half-maximal inhibition (IC50) in experiment [1] and in experiment [2] was 1000 to 10000 nM each time.

As to `Cn1cnc(-c2nccc3c(O)nc(Oc4ccc(Cl)c(Cl)c4)nc23)c1` [Example 113, 2-(3,4-dichlorophenoxy)-8-(1-methyl-1H-imidazol-4-yl)pyrido[3,4-d]pyrimidin-4-ol], the IC50 in experiment [1] and in experiment [2] was not above 100 nM throughout.

As to `O=C(C1CC1)N1CC[C@H](n2cc(Oc3nc(O)c4ccncc4n3)cn2)C1` [Example 141, 2-({1-[(3S)-1-cyclopropanecarbonylpyrrolidin-3-yl]-1H-pyrazol-4-yl}oxy)pyrido[3,4-d]pyrimidin-4-ol], the half-maximal inhibitory concentration (IC50) in experiment [1] and in experiment [2] was not above 100 nM throughout.

Regarding `Oc1nc(Oc2cnn([C@@H]3CCCN(Cc4ccccc4)C3)c2)nc2cnccc12` [Example 158, 2-({1-[(3R)-1-benzylpiperidin-3-yl]-1H-pyrazol-4-yl}oxy)pyrido[3,4-d]pyrimidin-4-ol], the IC50 in experiment [1] and in experiment [2] was not above 100 nM each time.

For `O=C(CO)N1CC[C@H](n2cc(Oc3nc(O)c4ccncc4n3)cn2)C1` [Example 155, 2-hydroxy-1-[(3S)-3-[4-({4-hydroxypyrido[3,4-d]pyrimidin-2-yl}oxy)-1H-pyrazol-1-yl]pyrrolidin-1-yl]ethan-1-one], the IC50 in experiment [1] and in experiment [2] was not above 100 nM each time.

On to `CCC(c1ccccc1)n1cc(Oc2nc(O)c3ccncc3n2)cn1` (centres unmarked) [Example 115, 2-{[1-(1-phenylpropyl)-1H-pyrazol-4-yl]oxy}pyrido[3,4-d]pyrimidin-4-ol], for which the IC50 in experiment [1] and in experiment [2] was not above 100 nM in each case.

As to `CCS(=O)(=O)N1CC[C@@H](n2cc(Oc3nc(O)c4ccncc4n3)cn2)C1` [Example 126, 2-({1-[(3R)-1-(ethanesulfonyl)pyrrolidin-3-yl]-1H-pyrazol-4-yl}oxy)pyrido[3,4-d]pyrimidin-4-ol], the IC50 in experiment [1] and in experiment [2] was not above 100 nM each time.

As to `O=S(=O)(C1CC1)N1CCCC(n2cc(Oc3nc(O)c4ccncc4n3)cn2)C1` (stereo in doubt) [Example 151, 2-({1-[(3S)-1-(cyclopropanesulfonyl)piperidin-3-yl]-1H-pyrazol-4-yl}oxy)pyrido[3,4-d]pyrimidin-4-ol], the IC50 in experiment [1] and in experiment [2] was not above 100 nM each time.

Turning to `CC(=O)N1CCC[C@@H](n2cc(Oc3nc(O)c4ccncc4n3)cn2)C1` [Example 153, 1-[(3R)-3-[4-({4-hydroxypyrido[3,4-d]pyrimidin-2-yl}oxy)-1H-pyrazol-1-yl]piperidin-1-yl]ethan-1-one], the IC50 in experiment [1] and in experiment [2] was not above 100 nM throughout.

For the molecule `N#CCC(=O)N1CC[C@H](n2cc(Oc3nc(O)c4ccncc4n3)cn2)C1` [Example 140, 3-[(3S)-3-[4-({4-hydroxypyrido[3,4-d]pyrimidin-2-yl}oxy)-1H-pyrazol-1-yl]pyrrolidin-1-yl]-3-oxopropanenitrile], the IC50 in experiment [1] and in experiment [2] was not above 100 nM each time.
